Measurements as given in ChEMBL document CHEMBL3885861, “Open TG-GATES”.

Species on record: Rattus norvegicus
Experiment: Open TG-GATES - Regimen: Daily Repeat
Type: toxicity, organism-based, Sprague-Dawley
Set-up: regimen Daily Repeat, gender Male, age 6 weeks
Details: in vivo, po, 50 mg/kg, route gavage, dose level Middle; for APTT / Bas / Eos / Fbg / Hb / Ht / Lym / MCH / MCHC / MCV / Mono / Neu / PT / Plat / RBC / Ret / WBC: tissue Blood; for KIDNEY_L / KIDNEY_R / KIDNEY_TOTAL: tissue Kidney; for LIVER: tissue Liver; for A/G / ALP / ALT / AST / BUN / CRE / Ca / Cl / DBIL / GLC / IP / K / LDH / Na / PL / RALB / TBIL / TC / TG / TP / gamma-GTP: tissue Plasma

Work on CN(C)CCC=C1c2ccccc2CCc2ccccc21 [AMITRIPTYLINE] yielded a TERMINAL_BW (72 h, time 3 day) of 221 g, an APTT (72 h, time 3 day) of 16.6 s and a Bas (72 h, time 3 day) of 0.2%. For the same compound, the Eos (72 h, time 3 day) was 1%, the Fbg (72 h, time 3 day) was 279.2 mg/dL and the Hb (72 h, time 3 day) was 13.3 g/dL. For the same compound, the Ht (72 h, time 3 day) was 40%, the Lym (72 h, time 3 day) was 80.2% and the MCH (72 h, time 3 day) was 21 pg. The MCHC (72 h, time 3 day) was 33.3%, the MCV (72 h, time 3 day) was 63.1 fL and the Mono (72 h, time 3 day) was 2.6%. The Neu (72 h, time 3 day) was 15.6%, the PT (72 h, time 3 day) was 16.3 s and the Plat (72 h, time 3 day) was 120.1 x10_4/uL. It also gave an RBC (72 h, time 3 day) of 634.6 x10_4/ul, a Ret (72 h, time 3 day) of 6% and a WBC (72 h, time 3 day) of 115.2 x10_2/uL. For the same compound, the KIDNEY_L (72 h, time 3 day) was 0.9 g, the KIDNEY_R (72 h, time 3 day) was 0.9 g and the KIDNEY_TOTAL (72 h, time 3 day) was 1.8 g. For the same compound, the LIVER (72 h, time 3 day) was 10.1 g, the A/G (72 h, time 3 day) was 0.8 and the ALP (72 h, time 3 day) was 1628.8 IU/L. The ALT (72 h, time 3 day) was 49.4 IU/L, the AST (72 h, time 3 day) was 67.6 IU/L and the BUN (72 h, time 3 day) was 16 mg/dL. The CRE (72 h, time 3 day) was 0.2 mg/dL, the Ca (72 h, time 3 day) was 10.9 mg/dL and the Cl (72 h, time 3 day) was 105.6 meq/L. It also gave a DBIL (72 h, time 3 day) of 0.02 mg/dL, a GLC (72 h, time 3 day) of 180.6 mg/dL and an IP (72 h, time 3 day) of 7.8 mg/dL. For the same compound, the K (72 h, time 3 day) was 4.4 meq/L, the LDH (72 h, time 3 day) was 62.8 IU/L and the Na (72 h, time 3 day) was 143.8 meq/L. For the same compound, the PL (72 h, time 3 day) was 158.4 mg/dL, the RALB (72 h, time 3 day) was 2.6 g/dL and the TBIL (72 h, time 3 day) was 0.048 mg/dL. The TC (72 h, time 3 day) was 87 mg/dL, the TG (72 h, time 3 day) was 98.8 mg/dL and the TP (72 h, time 3 day) was 5.8 g/dL. For the same compound, the gamma-GTP (72 h, time 3 day) was 0.8 IU/L, the TERMINAL_BW ([…], time 7 day) was 255.7 g and the TERMINAL_BW ([…], time 14 day) was 305.2 g. The TERMINAL_BW ([…], time 28 day) was 359.5 g, the APTT ([…], time 7 day) was 15 s and the Bas ([…], time 7 day) was 0.4%. For the same compound, the Eos ([…], time 7 day) was 1%, the Fbg ([…], time 7 day) was 280.6 mg/dL and the Hb ([…], time 7 day) was 13.2 g/dL. The Ht ([…], time 7 day) was 40%, the Lym ([…], time 7 day) was 74.8% and the MCH ([…], time 7 day) was 20.7 pg. It also gave an MCHC ([…], time 7 day) of 33%, an MCV ([…], time 7 day) of 62.7 fL and a Mono ([…], time 7 day) of 2.8%. For the same compound, the Neu ([…], time 7 day) was 20.4%, the PT ([…], time 7 day) was 15.5 s and the Plat ([…], time 7 day) was 108.4 x10_4/uL. The RBC ([…], time 7 day) was 638 x10_4/ul, the Ret ([…], time 7 day) was 5.2% and the WBC ([…], time 7 day) was 119.8 x10_2/uL. It also gave an APTT ([…], time 14 day) of 16.5 s, a Bas ([…], time 14 day) of 0.2% and an Eos ([…], time 14 day) of 1%. For the same compound, the Fbg ([…], time 14 day) was 299 mg/dL, the Hb ([…], time 14 day) was 14.4 g/dL and the Ht ([…], time 14 day) was 43.2%. The Lym ([…], time 14 day) was 77.2%, the MCH ([…], time 14 day) was 20.2 pg and the MCHC ([…], time 14 day) was 33.4%. It also gave an MCV ([…], time 14 day) of 60.5 fL, a Mono ([…], time 14 day) of 2.8% and a Neu ([…], time 14 day) of 18.2%. The PT ([…], time 14 day) was 16.2 s, the Plat ([…], time 14 day) was 111 x10_4/uL and the RBC ([…], time 14 day) was 713.6 x10_4/ul. The Ret ([…], time 14 day) was 4%, the WBC ([…], time 14 day) was 107.8 x10_2/uL and the APTT ([…], time 28 day) was 20.1 s. It also gave a Bas ([…], time 28 day) of 0.8%, an Eos ([…], time 28 day) of 0.8% and a Fbg ([…], time 28 day) of 289.6 mg/dL. The Hb ([…], time 28 day) was 15.6 g/dL, the Ht ([…], time 28 day) was 45% and the Lym ([…], time 28 day) was 80.6%. It also gave an MCH ([…], time 28 day) of 19.6 pg, an MCHC ([…], time 28 day) of 34.6% and an MCV ([…], time 28 day) of 56.5 fL. For the same compound, the Mono ([…], time 28 day) was 2.4%, the Neu ([…], time 28 day) was 14.8% and the PT ([…], time 28 day) was 16.6 s. The Plat ([…], time 28 day) was 101.5 x10_4/uL, the RBC ([…], time 28 day) was 797.2 x10_4/ul and the Ret ([…], time 28 day) was 2.1%. The WBC ([…], time 28 day) was 134.2 x10_2/uL, the KIDNEY_L ([…], time 7 day) was 1.1 g and the KIDNEY_R ([…], time 7 day) was 1.1 g. The KIDNEY_TOTAL ([…], time 7 day) was 2.1 g, the KIDNEY_L ([…], time 14 day) was 1.2 g and the KIDNEY_R ([…], time 14 day) was 1.2 g. It also gave a KIDNEY_TOTAL ([…], time 14 day) of 2.3 g, a KIDNEY_L ([…], time 28 day) of 1.4 g and a KIDNEY_R ([…], time 28 day) of 1.4 g. The KIDNEY_TOTAL ([…], time 28 day) was 2.7 g, the LIVER ([…], time 7 day) was 11.1 g and the LIVER ([…], time 14 day) was 12.6 g. For the same compound, the LIVER ([…], time 28 day) was 14.2 g, the A/G ([…], time 7 day) was 0.8 and the ALP ([…], time 7 day) was 1561.4 IU/L. The ALT ([…], time 7 day) was 47.4 IU/L, the AST ([…], time 7 day) was 69 IU/L and the BUN ([…], time 7 day) was 15.8 mg/dL. For the same compound, the CRE ([…], time 7 day) was 0.2 mg/dL, the Ca ([…], time 7 day) was 10.9 mg/dL and the Cl ([…], time 7 day) was 104.6 meq/L. The DBIL ([…], time 7 day) was 0.012 mg/dL, the GLC ([…], time 7 day) was 187 mg/dL and the IP ([…], time 7 day) was 7.3 mg/dL. It also gave a K ([…], time 7 day) of 3.8 meq/L, an LDH ([…], time 7 day) of 66.4 IU/L and a Na ([…], time 7 day) of 143.6 meq/L. It also gave a PL ([…], time 7 day) of 156.4 mg/dL, an RALB ([…], time 7 day) of 2.6 g/dL and a TBIL ([…], time 7 day) of 0.046 mg/dL. For the same compound, the TC ([…], time 7 day) was 80.4 mg/dL, the TG ([…], time 7 day) was 114 mg/dL and the TP ([…], time 7 day) was 5.8 g/dL. The gamma-GTP ([…], time 7 day) was 1 IU/L, the A/G ([…], time 14 day) was 0.8 and the ALP ([…], time 14 day) was 1627.8 IU/L. The ALT ([…], time 14 day) was 43.4 IU/L, the AST ([…], time 14 day) was 69.6 IU/L and the BUN ([…], time 14 day) was 17 mg/dL. It also gave a CRE ([…], time 14 day) of 0.2 mg/dL, a Ca ([…], time 14 day) of 11 mg/dL and a Cl ([…], time 14 day) of 105.4 meq/L. It also gave a DBIL ([…], time 14 day) of 0.022 mg/dL, a GLC ([…], time 14 day) of 186.6 mg/dL and an IP ([…], time 14 day) of 7.2 mg/dL. The K ([…], time 14 day) was 4 meq/L, the LDH ([…], time 14 day) was 72.6 IU/L and the Na ([…], time 14 day) was 143.6 meq/L. For the same compound, the PL ([…], time 14 day) was 156.2 mg/dL, the RALB ([…], time 14 day) was 2.7 g/dL and the TBIL ([…], time 14 day) was 0.05 mg/dL. The TC ([…], time 14 day) was 77.4 mg/dL, the TG ([…], time 14 day) was 145.2 mg/dL and the TP ([…], time 14 day) was 6 g/dL. For the same compound, the gamma-GTP ([…], time 14 day) was 0.6 IU/L, the A/G ([…], time 28 day) was 0.8 and the ALP ([…], time 28 day) was 1098.4 IU/L. For the same compound, the ALT ([…], time 28 day) was 40.8 IU/L, the AST ([…], time 28 day) was 61.8 IU/L and the BUN ([…], time 28 day) was 17.2 mg/dL. For the same compound, the CRE ([…], time 28 day) was 0.2 mg/dL, the Ca ([…], time 28 day) was 10.3 mg/dL and the Cl ([…], time 28 day) was 104.2 meq/L. For the same compound, the DBIL ([…], time 28 day) was 0.018 mg/dL, the GLC ([…], time 28 day) was 186.6 mg/dL and the IP ([…], time 28 day) was 6.3 mg/dL. The K ([…], time 28 day) was 4 meq/L, the LDH ([…], time 28 day) was 62.4 IU/L and the Na ([…], time 28 day) was 141.6 meq/L. For the same compound, the PL ([…], time 28 day) was 139.8 mg/dL, the RALB ([…], time 28 day) was 2.8 g/dL and the TBIL ([…], time 28 day) was 0.058 mg/dL. It also gave a TC ([…], time 28 day) of 71.4 mg/dL, a TG ([…], time 28 day) of 108 mg/dL and a TP ([…], time 28 day) of 6.3 g/dL. For the same compound, the gamma-GTP ([…], time 28 day) was 0.6 IU/L.
